Series [1] has as its target HSD17B2 (Homo sapiens (Human), UniProt P37059). Briefly: HSD17B2 enzymatic blocking assay. The series is classed as biochemical. The settings on record: 1.8 μM Estradiol, 650 μM NAD; read-out: Inhibition of HSD17B2 IC50. The method in brief:
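Mammalian-expressed enzyme at 2 ng/μL in 50 mM Tris-HCl pH 7.5 with detergents/BSA, preincubated 15 min at 20° C. with compound (10-point titration). Reaction with 1.8 μM estradiol and 650 μM NAD ran 45 min at 20° C.; NADH measured by NADH-Glo luminescence and IC50 derived.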

The target of series [2] is HSD17B1 (Homo sapiens (Human), UniProt P14061). Briefly: HSD17B1 enzymatic blocking assay. The series is classed as biochemical. Particulars: 25 μM Estradiol, 500 μM NAD; read-out: Inhibition of HSD17B1 IC50. The method in brief:
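Activity followed as NADH formed on estradiol oxidation, read by NADH-Glo luminescence after 1 h detection in the dark at room temperature. Compounds preincubated with enzyme 30 min at room temperature; 0.5% DMSO and no-substrate controls. IC50 fitted from luminescence.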

The nature of series [3]: Microsome stability assay, mouse liver microsomes. The format is in vitro ADME. The settings on record: 1 μM compound, 0.5 mg/mL microsomal protein; for microsomal CLint at 1 μM / half-life at 1 μM / microsomal CLint at 1 h, 1 µM / half-life at 1 h, 1 µM: mouse, mouse liver microsomes, pooled, NADPH, 37° C.; for microsomal CLint at 1 μM / microsomal CLint at 1 h, 1 µM: read-out: Microsome Stability Mouse liver microsomes Cl; for half-life at 1 μM / half-life at 1 h, 1 µM: read-out: Microsome Stability Mouse liver microsomes T½. The procedure, abridged:
(§1)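 Compound at 1 μM incubated at 37° C with pooled human or mouse liver microsomes (0.5 mg/mL protein) plus NADPH regenerating system, sampled at 0–60 min; a 60-min no-NADPH incubation also included. Single replicate; LC/MS/MS disappearance from analyte/internal standard peak area ratios, without standard curve.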
Background: Microsomes from liver hold many membrane-bound enzymes, among them those of drug oxidation.

Series [4] concerns the target HSD17B10 (Homo sapiens (Human), UniProt Q99714). Briefly: HSD17B10 enzymatic blocking assay. Particulars: 25 μM Estradiol, 500 μM NAD; read-out: Inhibition of HSD17B10 IC50. The format is biochemical. The protocol:
To screen compounds of the disclosure for their ability to block HSD17B10 function, an enzymatic blocking assay was performed. For the assay, HSD17B10 activity was measured by detecting NADH formation from oxidation of Estradiol using a NADH Glo luminescence assay (Promega, #Cat. No. G9062). Compounds of the disclosure were evaluated in a dose titration assay where the compounds were titrated at 10-point dose curve using an Echo-555 liquid handling dispenser. HSD17B10 (Seq. ID NO: 5, expressed in mammalian cells) was added at a final concentration of 31.25 ng/well in a buffer containing 0.2M Tris-HCl, pH 7.5, into a low volume white 384-well assay plate. Compounds were incubated with the enzyme for 30 minutes at room temperature. The assay reaction was then initiated by addition of 25 μM Estradiol substrate (Sigma, catalog #E2758-250MG, CAS: 50-28-2) and 500 μM NAD co-factor, and the reaction mixture was incubated for 3 hours at room temperature. DMSO at a concentration of 0.5% was used as a negative control and a ‘no substrate’ control was used a positive control in the assay. Detection reagent was then added as per manufacturer's instructions, and the plate was subsequently incubated in the dark for 1 hour at room temperature, NADH generated was detected in the luminescence mode on the Envision Perkin Elmer plate reader. The IC50 values were determined using Dotmatics analysis software.

Series [5] concerns the target HSD17B4 (Homo sapiens (Human), UniProt P51659). Briefly: HSD17B4 enzymatic blocking assay. The series is classed as biochemical. Particulars: 23.46 μM Estradiol, 1500 μM NAD; read-out: Inhibition of HSD17B4 IC50. The protocol: To screen compounds of the disclosure for their ability to block HSD17B4 function, an enzymatic blocking assay was performed. For the assay, HSD17B4 activity was measured by detecting NADH formation from oxidation of Estradiol using a NADH Glo luminescence assay (Promega, #Cat. No. G9062). Compounds of the disclosure were evaluated in a dose titration assay where the compounds were titrated at 10-point dose curve using an Echo-555 liquid handling dispenser. HSD17B4 (SEQ ID NO: 4, expressed in mammalian cells) was added at a final concentration of 2.5 ng/μL in a buffer containing 50 mM Tris-HCl, pH 7.5, Pluronic F-127 0.05%, Tween20 0.01%, BSA 0.01%, into a low volume white 384-well assay plate. Compounds were incubated with the enzyme for 15 min at 20° C. The assay reaction was then initiated by addition of 23.46 μM Estradiol substrate (Sigma, catalog #E2758-250MG, CAS: 50-28-2) and 1500 μM NAD co-factor, and the reaction mixture was incubated for 45 min at 20° C. DMSO at a concentration of 0.5% was used as a negative control and a ‘no substrate’ control was used a positive control in the assay. Detection reagent was then added as per manufacturer's instructions, and the plate was subsequently incubated in the dark for 1 hour at room temperature, NADH generated was detected in the luminescence mode on the Envision Perkin Elmer plate reader. The IC50 values were determined using Dotmatics analysis software.

Series [6] is described as follows: Microsome stability assay, human liver microsomes. The series is classed as in vitro ADME. The settings on record: 1 μM compound, 0.5 mg/mL microsomal protein; for microsomal CLint at 1 μM / half-life at 1 μM / microsomal CLint at 1 h, 1 µM / half-life at 1 h, 1 µM: human, human liver microsomes, pooled, NADPH, 37° C.; for microsomal CLint at 1 μM / microsomal CLint at 1 h, 1 µM: read-out: Microsome Stability Human liver microsomes Cl; for half-life at 1 μM / half-life at 1 h, 1 µM: read-out: Microsome Stability Human liver microsomes T½. The procedure, abridged:
as §1

The target of series [7] is HSD17B13 (Homo sapiens (Human), UniProt Q7Z5P4). Briefly: HSD17B13 enzymatic inhibition assay (150 nM or 50 nM HSD17B13). The series is classed as biochemical. Particulars: 50 nM HSD17B13; read-out: Inhibition of 50 nM of HSD17B13 IC50.
Chain of HSD17B13 (Q7Z5P4 other isoform, or with tags, fused parts or gaps): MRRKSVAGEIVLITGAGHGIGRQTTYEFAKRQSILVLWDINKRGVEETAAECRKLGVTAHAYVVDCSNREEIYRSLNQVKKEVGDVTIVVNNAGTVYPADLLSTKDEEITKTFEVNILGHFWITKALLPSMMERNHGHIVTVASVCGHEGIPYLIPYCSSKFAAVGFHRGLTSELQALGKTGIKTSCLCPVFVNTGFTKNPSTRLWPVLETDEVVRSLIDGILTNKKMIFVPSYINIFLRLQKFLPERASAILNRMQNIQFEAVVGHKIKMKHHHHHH

Molecules are shown by their SMILES.

Broadly, the IC50 is the midpoint of a concentration-inhibition curve.

Chain of HSD17B4 (P51659 other isoform, or with tags, fused parts or gaps): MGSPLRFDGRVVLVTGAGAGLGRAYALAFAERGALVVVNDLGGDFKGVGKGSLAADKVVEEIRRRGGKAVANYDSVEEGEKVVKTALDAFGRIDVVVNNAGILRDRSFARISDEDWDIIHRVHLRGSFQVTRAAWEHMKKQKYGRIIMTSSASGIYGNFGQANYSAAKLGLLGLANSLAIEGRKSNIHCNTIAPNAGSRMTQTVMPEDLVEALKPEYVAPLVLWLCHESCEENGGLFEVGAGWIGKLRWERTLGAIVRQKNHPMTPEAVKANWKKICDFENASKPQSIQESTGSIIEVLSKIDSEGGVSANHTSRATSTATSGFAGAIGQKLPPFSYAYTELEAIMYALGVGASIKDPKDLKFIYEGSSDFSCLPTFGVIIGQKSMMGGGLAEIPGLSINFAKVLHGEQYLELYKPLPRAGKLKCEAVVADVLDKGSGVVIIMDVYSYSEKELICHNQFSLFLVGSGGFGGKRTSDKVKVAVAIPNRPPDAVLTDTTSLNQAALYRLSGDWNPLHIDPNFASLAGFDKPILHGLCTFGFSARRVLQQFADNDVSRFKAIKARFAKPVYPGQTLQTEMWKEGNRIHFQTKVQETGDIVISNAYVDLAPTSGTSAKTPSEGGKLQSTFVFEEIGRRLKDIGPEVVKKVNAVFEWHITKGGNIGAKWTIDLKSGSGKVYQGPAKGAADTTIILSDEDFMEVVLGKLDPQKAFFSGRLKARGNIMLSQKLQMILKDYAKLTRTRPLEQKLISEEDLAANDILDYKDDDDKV
Chain of HSD17B10 (Q99714 other isoform, or with tags, fused parts or gaps): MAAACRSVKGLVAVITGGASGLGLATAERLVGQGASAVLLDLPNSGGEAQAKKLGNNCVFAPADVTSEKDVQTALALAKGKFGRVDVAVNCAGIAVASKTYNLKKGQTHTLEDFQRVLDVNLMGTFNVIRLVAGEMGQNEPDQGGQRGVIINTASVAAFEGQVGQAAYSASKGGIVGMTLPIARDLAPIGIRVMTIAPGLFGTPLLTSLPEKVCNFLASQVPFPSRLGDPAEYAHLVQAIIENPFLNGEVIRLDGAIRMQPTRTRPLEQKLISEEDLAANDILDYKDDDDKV
Chain of HSD17B2 (P37059 other isoform, or with tags, fused parts or gaps): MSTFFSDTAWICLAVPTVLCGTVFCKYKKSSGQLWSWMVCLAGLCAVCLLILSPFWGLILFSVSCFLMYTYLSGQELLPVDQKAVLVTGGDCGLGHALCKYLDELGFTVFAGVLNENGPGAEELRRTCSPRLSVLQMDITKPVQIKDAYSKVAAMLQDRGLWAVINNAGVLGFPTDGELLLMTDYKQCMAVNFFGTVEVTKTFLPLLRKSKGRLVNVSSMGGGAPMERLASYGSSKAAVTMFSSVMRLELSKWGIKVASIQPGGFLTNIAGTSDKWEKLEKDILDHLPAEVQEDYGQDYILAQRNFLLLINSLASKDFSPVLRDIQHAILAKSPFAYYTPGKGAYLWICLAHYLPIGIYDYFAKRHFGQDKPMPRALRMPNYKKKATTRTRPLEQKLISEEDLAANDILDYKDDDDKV
Chain of HSD17B1 (P14061 other isoform, or with tags, fused parts or gaps): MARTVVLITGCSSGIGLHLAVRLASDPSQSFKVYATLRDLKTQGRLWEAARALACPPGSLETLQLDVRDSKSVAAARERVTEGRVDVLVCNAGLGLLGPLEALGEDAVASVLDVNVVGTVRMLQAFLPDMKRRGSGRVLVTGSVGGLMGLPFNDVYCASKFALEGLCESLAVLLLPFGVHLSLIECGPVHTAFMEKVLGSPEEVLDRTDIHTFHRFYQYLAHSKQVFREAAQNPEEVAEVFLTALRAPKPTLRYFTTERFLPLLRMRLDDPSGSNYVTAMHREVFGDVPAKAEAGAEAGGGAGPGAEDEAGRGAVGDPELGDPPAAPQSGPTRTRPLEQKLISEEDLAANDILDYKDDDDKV

Regarding `O=C(NC1c2ccc(Cl)cc2Oc2cc(Cl)ccc21)c1ccc(C(F)(F)F)[nH]c1=O` [Compound 50, N-(3,6-dichloro-9H-xanthen-9-yl)-2-oxo-6-(trifluoromethyl)-1,2-dihydropyridine-3-carboxamide], the concentration for half-maximal inhibition (IC50) in series [1] was 5.16 µM; in series [2] it was 4.22 µM; in series [4] it was over 30 µM; in series [5], over 100 µM; in series [7], 0.12 µM. In addition, in series [3], the “Microsome Stability Mouse liver microsomes % Remaining @60 min” value is recorded as 97.70%. Also, the microsomal CLint at 1 μM in series [3] and in series [6] was under 9.6 µL/min/mg in each case. The half-life at 1 μM in series [3] and in series [6] was over 2.42 h throughout. Moreover, the “Microsome Stability Human liver microsomes % Remaining @60 min” value in series [6] was determined as 101.00%.
On to `O=C(NC1c2ccc(Cl)cc2Oc2cccc(Cl)c21)c1ccc(C(F)(F)F)[nH]c1=O` (stereo not drawn) [Compound 51, N-(1,6-dichloro-9H-xanthen-9-yl)-2-oxo-6-(trifluoromethyl)-1,2-dihydropyridine-3-carboxamide], for which the concentration for half-maximal inhibition (IC50) in series [1] was 8.71 µM; in series [2], 4.55 µM; in series [4], over 30 µM; in series [5], over 100 µM; in series [7] it was 0.23 µM. Moreover, the “Microsome Stability Mouse liver microsomes % Remaining @60 min” value in series [3] amounted to 73.50%. Further, the microsomal CLint at 1 h, 1 µM was determined as 10.4 µL/min/mg in series [3] and 23 µL/min/mg in series [6]. The half-life at 1 h, 1 µM in series [3] was found to be 2.22 h; in series [6], 1 h. The “Microsome Stability Human liver microsomes % Remaining @60 min” value in series [6] came out at 44.00%.
With `Cc1ccc2c(c1)Oc1cc(C)ccc1C2NC(=O)c1ccc(C(F)(F)F)[nH]c1=O` [Compound 52, N-(3,6-dimethyl-9H-xanthen-9-yl)-2-oxo-6-(trifluoromethyl)-1,2-dihydropyridine-3-carboxamide], the IC50 is 8.69 µM in series [1]; 5.84 µM in series [2]; over 30 µM in series [4]; over 100 µM in series [5]; 0.08 µM in series [7]. In addition, in series [3], the “Microsome Stability Mouse liver microsomes % Remaining @60 min” value stood at 125.00%. Besides, the microsomal CLint at 1 μM in series [3] and in series [6] was under 9.6 µL/min/mg each time. The half-life at 1 μM in series [3] and in series [6] was over 2.42 h each time. The “Microsome Stability Human liver microsomes % Remaining @60 min” value in series [6] is 110.00%.
Consider `Cc1ccc(C(NC(=O)c2cc(C)c(C(F)(F)F)[nH]c2=O)c2ccc(C)cc2)cc1` [Compound 115, N-(di-p-tolylmethyl)-5-methyl-2-oxo-6-(trifluoromethyl)-1,2-dihydropyridine-3-carboxamide], for which the concentration for half-maximal inhibition (IC50) was 11 µM in series [1]; 11.2 µM in series [2]; over 30 µM in series [4]; over 100 µM in series [5]; 0.45 µM in series [7].
Regarding `Cc1ccc2c(c1)Oc1cc(Cl)ccc1C2NC(=O)c1ccc(C(F)(F)F)[nH]c1=O` (stereo not drawn) [Compound 138, N-(3-chloro-6-methyl-9H-xanthen-9-yl)-2-oxo-6-(trifluoromethyl)-1,2-dihydropyridine-3-carboxamide], in series [1], the IC50 amounted to 16.1 µM. Besides, the concentration for half-maximal inhibition (IC50) in series [2] was found to be 2.07 µM. Further, in series [3], the “Microsome Stability Mouse liver microsomes % Remaining @60 min” value was determined as 97.40%, the microsomal CLint at 1 μM was under 9.6 µL/min/mg and the half-life at 1 μM is over 2.42 h. For the same molecule, in series [4], the concentration for half-maximal inhibition (IC50) was over 30 µM. Further, the IC50 in series [5] was over 100 µM. Moreover, in series [6], the “Microsome Stability Human liver microsomes % Remaining @60 min” value came to 72.40%; the microsomal CLint at 1 h, 1 µM was determined as 17.8 µL/min/mg; the half-life at 1 h, 1 µM was 1.3 h. Further, the IC50 in series [7] amounted to 0.02 µM.
With `CCc1ccc2c(c1)Oc1ccccc1C2NC(=O)c1ccc(C(F)(F)F)[nH]c1=O` (stereo not drawn) [Compound 140, N-(3-ethyl-9H-xanthen-9-yl)-2-oxo-6-(trifluoromethyl)-1,2-dihydropyridine-3-carboxamide], the IC50 in series [1] was 10.7 µM; in series [2] it was 3.53 µM; in series [4] it was over 30 µM; in series [5] it was 54.2 µM; in series [7], 0.2 µM.
With `O=C(NC1c2ccccc2Oc2cc(CC(F)(F)F)ccc21)c1ccc(C(F)(F)F)[nH]c1=O` (stereo not drawn) [Compound 141, 2-oxo-N-(3-(2,2,2-trifluoroethyl)-9H-xanthen-9-yl)-6-(trifluoromethyl)-1,2-dihydropyridine-3-carboxamide], the 50% inhibitory concentration (IC50) is 7.3 µM in series [1]; 3.62 µM in series [2]; over 30 µM in series [4]; 58.2 µM in series [5]; 0.36 µM in series [7].
`Cc1ccc2c(c1)Oc1cccc(Cl)c1C2NC(=O)c1ccc(C(F)(F)F)[nH]c1=O` (stereo not drawn) [Compound 190, N-(1-chloro-6-methyl-9H-xanthen-9-yl)-2-oxo-6-(trifluoromethyl)-1,2-dihydropyridine-3-carboxamide]: the half-maximal inhibitory concentration (IC50) is 8.71 µM in series [1]; 3.2 µM in series [2]; over 30 µM in series [4]; 84.5 µM in series [5]; 0.09 µM in series [7]. For the same molecule, the “Microsome Stability Mouse liver microsomes % Remaining @60 min” value in series [3] came out at 59.10%. Besides, the values for the microsomal CLint at 1 h, 1 µM in series [3] and in series [6] were 17.4 µL/min/mg and 172 µL/min/mg, respectively. Besides, the half-life at 1 h, 1 µM was 1.33 h in series [3] and 0.135 h in series [6]. Besides, the “Microsome Stability Human liver microsomes % Remaining @60 min” value in series [6] worked out at 0.62%.
Take `Cc1ccc2c(c1)Oc1ccccc1C2NC(=O)c1c(C)cc(C(F)(F)F)[nH]c1=O` (stereo not drawn) [Compound 198, 4-methyl-N-(3-methyl-9H-xanthen-9-yl)-2-oxo-6-(trifluoromethyl)-1,2-dihydropyridine-3-carboxamide]: the IC50 in series [1] was over 100 µM; in series [2], over 30 µM; in series [4] it was over 30 µM; in series [5], over 100 µM; in series [7], 0.4 µM.

The values above are taken from US11957687B2 (REGENERON PHARMACEUTICALS, INC., priority 2019, dated 2024).
